# Assay results reported in patent US12102637B2, “Pharmaceutical formulations for treating endometriosis, uterine fibroids, polycystic ovary syndrome or adenomyosis” (AbbVie Inc., priority 2017, dated 2024).
# Key:
# [1] = biological target: T1, organic anion transporting polypeptide (OATP)1B1 (Homo sapiens, UniProt Q9Y6L6); assay: Elagolix as substrate of OATP1B1
# T1 sequence (Q9Y6L6 1-691): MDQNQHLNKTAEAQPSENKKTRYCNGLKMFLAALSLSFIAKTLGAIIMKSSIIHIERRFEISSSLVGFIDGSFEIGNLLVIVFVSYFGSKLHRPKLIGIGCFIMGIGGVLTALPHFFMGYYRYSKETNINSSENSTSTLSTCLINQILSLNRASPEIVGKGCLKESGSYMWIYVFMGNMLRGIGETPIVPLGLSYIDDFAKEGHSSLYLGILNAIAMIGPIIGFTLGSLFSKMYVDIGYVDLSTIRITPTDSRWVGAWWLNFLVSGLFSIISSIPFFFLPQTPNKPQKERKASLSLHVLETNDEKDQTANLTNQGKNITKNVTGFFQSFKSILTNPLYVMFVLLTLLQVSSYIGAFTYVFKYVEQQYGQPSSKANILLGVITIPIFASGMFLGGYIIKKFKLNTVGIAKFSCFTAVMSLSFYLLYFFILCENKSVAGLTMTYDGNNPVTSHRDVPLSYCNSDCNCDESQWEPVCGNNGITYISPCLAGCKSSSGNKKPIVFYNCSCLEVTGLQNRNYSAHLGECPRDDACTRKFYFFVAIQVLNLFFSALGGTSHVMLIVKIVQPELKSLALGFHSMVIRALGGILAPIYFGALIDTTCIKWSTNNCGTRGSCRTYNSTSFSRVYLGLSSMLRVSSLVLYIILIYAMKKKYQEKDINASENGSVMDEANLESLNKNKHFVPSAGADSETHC
# Source text: Elagolix is a substrate of CYP3A, P-gp, and organic anion transporting polypeptide (OATP)1B1. Clinically meaningful interactions are not expected when elagolix is co-administered with drugs that inhibit CYP3A or P-gp.
# QTc interval = assay: Thorough QT study; assay type: in vivo, human; details: up to 1200 mg; 17- to 23-fold therapeutic concentrations; active control moxifloxacin 400 mg
# Protocol: The effect of elagolix (up to 1200 mg) on QTc interval was evaluated in an active-controlled (moxifloxacin 400 mg) thorough QT study.
# [2] = Pharmacokinetics in renal impairment; assay type: in vivo, human; details: moderate to severe or end stage renal disease vs normal renal function
# Source text: The mean exposures are similar for women with moderate to severe or end stage renal disease (including women on dialysis) compared to women with normal renal function.
# [3] = system: women with moderate to severe endometriosis-related pain; assay: PROMIS Fatigue SF-6a T-score in Phase III endometriosis study; assay type: in vivo, human
# Protocol: A Phase III study was conducted to assess the effects of elagolix for clinically meaningful reductions in pain and other symptoms. Data provided examined the impact of elagolix on fatigue in women with moderate to severe endometriosis-related pain. […] Fatigue was assessed using the Patient Reported Outcome Measurement Information System (PROMIS®), Fatigue Short Form (SF) 6a. Six items assessed a range of self-reported symptoms from mild, subjective feelings of tiredness to overwhelming, sustained sense of exhaustion that likely decreases one's ability to execute daily activities and function normally. The domain was divided into the experience of fatigue (frequency, duration and intensity) and impact of fatigue on physical, mental and social activities. All items assessed fatigue over the previous seven days. Responses to each question was filed on a 5-item Likert scale: 1—“Not at all”; 2—“A little bit”; 3—“Somewhat”; 4—“Quite a bit”; and 5—“Very much.” The questionnaire was administered at baseline and months 1, 3, and 6. Lower scores indicated less fatigue. Post-hoc, Fatigue SF-6a raw scores were converted to T-scores. The T-score rescales […] the raw score into a standardized score such that the general population has a mean of 50 and a standard deviation (SD) of 10. Analysis: […] ANCOVA controlled for treatment as main effect. Baseline Fatigue SF-6a T-score included as a covariate.
# [4] = system: premenopausal women with endometriosis with associated pain; assay: Blinded extension studies EM-III and EM-IV (12 months); assay type: in vivo, human; details: patients maintained on their dose
# Source text: Each placebo-controlled study assessed the reduction in endometriosis-associated pain over 6 months of treatment. More than 75 percent of women who completed Study EM-I and EM-II enrolled in the extension studies for an additional 6 months treatment period. Subjects were followed for up to 12 months post-treatment. In study EM-IV, efficacy was maintained when elagolix was taken with and without food.
# [5] = Pharmacokinetics in hepatic impairment; assay type: in vivo, human
# Source text: Elagolix exposures (Cmax and AUC) are similar between women with normal hepatic function and women with mild hepatic impairment. Elagolix exposures in women with moderate and severe hepatic impairment are approximately 3-fold and 7-fold, respectively, of exposures from women with normal hepatic function.
# Compared to women with normal liver function, those with moderate hepatic impairment had approximately 3-fold higher elagolix exposures and those with severe hepatic impairment had approximately 7-fold higher elagolix exposures. Because of these increased exposures and risk for bone loss: Elagolix 150 mg once daily is recommended for women with moderate hepatic impairment (Child-Pugh B) with the duration of treatment limited to 6 months. Use of elagolix 200 mg twice daily is not recommended for women with moderate hepatic impairment. Elagolix is contraindicated in women with severe hepatic impairment (Child-Pugh C).
# healthy women = assay: 3-menstrual cycle study in healthy women (ovulation, endometrial thickness); assay type: in vivo, human; details: 150 mg QD and 200 mg BID, vs pretreatment
# [6] = Pharmacokinetic properties of elagolix in healthy subjects; details: human, in vivo
# [7] = system: premenopausal women with endometriosis with associated pain; assay: Studies EM-I and EM-II: dysmenorrhea scores and Numeric Rating Scale (NRS) pain; assay type: in vivo, human
# Source text: Women in these studies also provided a daily self-assessment of their endometriosis pain using the Numeric Rating Scale (NRS), on a scale ranging from 0 (no pain) to 10 (worst pain ever).
compound,measurement,setting,value
"COc1cccc(-c2c(C)n(Cc3c(F)cccc3C(F)(F)F)c(=O)n(C[C@H](NCCCC(=O)O)c3ccccc3)c2=O)c1F [Compound A, 4-((R)-2-[5-(2-fluoro-3-methoxy-phenyl)-3-(2-fluoro-6-trifluoromethyl-benzyl)-4-methyl-2,6-dioxo-3,6-dihydro-2H-pyrimidin-1-yl]-1-phenyl-ethylamino)-butyric acid]",substrate of organic anion transporting polypeptide (OATP)1B1,[1],substrate
same,Effect on QTc interval,QTc interval,does not prolong the QTc interval
same,exposures (Cmax and AUC) in renal impairment,[2],not altered by renal impairment
same,PROMIS Fatigue SF-6a T-Score,"[3]; 200 mg, Month 1, vs placebo",statistically significant reduction in fatigue
same,PROMIS Fatigue SF-6a T-Score,"[3]; both doses (150 mg QD, 200 mg BID), Months 3 and 6, vs placebo",Statistically significant reductions relative to placebo
same,"durability of improvement in dysmenorrhea, NMPP and dyspareunia",[4],demonstrated for a total of 12 months
same,exposures (Cmax and AUC) vs normal hepatic function,[5]; mild hepatic impairment,similar
same,exposures vs normal hepatic function,[5]; moderate hepatic impairment,approximately 3 fold
same,exposures vs normal hepatic function,"[5]; severe hepatic impairment, listed as Elagolix",~7 fold
same,exposures vs normal hepatic function,"[5]; severe hepatic impairment, listed as elagolix",approximately 7 fold
same,mean endometrial thickness (transvaginal ultrasound),healthy women,dose dependent decrease in the mean endometrial thickness
same,Major route of elimination,[6],Hepatic metabolism
same,Numeric Rating Scale (NRS) endometriosis pain scores,"[7]; 150 mg QD and 200 mg BID, vs placebo at Month 3 and Month 6",highly statistically (p<0.001) significant reduction in NRS scores
same,mean decreases from Baseline in dysmenorrhea scores,"[7]; both elagolix treatment groups, Month 1 through Month 6, vs placebo",statistically significantly greater than placebo
